Reference: patent publication US20070117842A1, “Polymorph of 4-[3-chloro-4-(cyclopropylaminocarbonyl)aminophenoxy]-7-methoxy-6- quinolinecarboxamide and a process for the preparation of the same” (priority 2003, published 2007)
Values after ≈ are worked out from the molar mass of the structure shown.

Legend:
Assay type in all cases: physicochemical
[1] = Solid stability test (1 month storage; appearance, water content, HPLC purity and residual ratio, powder X-ray diffraction); details: for impurity / remaining percent: HPLC; for water content: Karl Fischer method
Experimental: (Solid Stability Test) The solid stabilities of the crystal obtained in Examples 1d and 2d were evaluated. […] The water content measurement and the powder X-ray diffraction measurement were carried out by the same method as described in the hygroscopicity test by the dessiccator method. Further, the purity test and the residual ratio (percent) measurement by HPLC were carried out by the same method as described above, except for the condition that the column temperature was 35° C. In this connection, the residual ratio (percent) (measurement by HPLC) was defined as stated bellow by using the crystal stored under the condition C as the standard and its solution as the standard solution. Remaining percent (%)=[(Peak area of the sample solution)×(Weighed amount of the standard: in terms of a dehydrate (mg))]×100/[(Peak area of the standard solution)×(Weighed amount of the sample: in terms of a dehydrate (mg))] [table]

[2] = Solubility test (pH 3, Britton Robinson buffer); details: for pH of the filtrate: solubility test
Experimental: (Solubility Test) The solubilities (pH 3) of the crystals obtained in Examples 1d and 2d were evaluated by the following method. About 3 mg of the crystals obtained in Examples 1d and 2d were weighed and each of them was put in a 10 mL screw-capped transparent test tube. 5 mL of a buffer solution (Britton Robinson buffer, pH 3.091, ionic strength I=0.3) was added to each of the test tubes to prepare the test solutions. The test tubes were wrapped with aluminum foil to shield from light, and shaken by a shaker (MS-1 Iuchi Seieido) in the following conditions. Temperature: 25-26° C. (a temperature in a laboratory) Shaking frequency: 150 times/minute Shaking time: 3 hours and 5 hours Respective sample solutions after shaking were filtered ([…], Sample LCR13-LG, Millipore Co.), and each 1 mL of the initial filtrate was discarded. Each of accurately pipetted 1 mL of the filtrates was put in a 10 mL test tube, to which accurately pipetted 1 mL of a mixed solution of water/acetonitrile (1:1 (v/v)) was added to prepare a solution for the HPLC analysis. The HPLC conditions were as follows. A standard solution for the HPLC analysis were prepared as follows. About 10 mg of the crystals obtained in Example 2d was accurately weighed, to which a mixed solution of water/acetonitrile/ammonium acetate (100:100:0.1, v/v/w) was added to give accurate 100 mL to prepare a stock standard solution. Accurately pipetted 5 mL of the stock control solution was added with a mixed solution of water/acetonitrile/ammonium acetate (100:100:0.1, v/v/w) to give accurate 25 mL to prepare the standard solution for the HPLC analysis. Regarding a blank solution, a mixed solution of water/acetonitrile/ammonium acetate (100:100:0.1, v/v/w) was used. The standard solution and respective filtrates were analyzed by HPLC to measure concentrations (mg/mL) of 4-(3-chloro-4-(cyclopropylaminocarbonyl)aminophenoxy)-7-methoxy-6-quinolinecarboxamide in respective filtrates according to the following equation. Concentration (mg/mL)=(Concentration in the standard solution, mg/mL)×[(Peak area in each filtrate)×2/(Peak area in the standard solution)] As is evident from the results, there was no significant difference in the solubility at pH 3 between the polymorphs (A) and (B).

[3] = Hygroscopicity test by a desiccator method; details: for water content: Karl Fischer method
Experimental: (Hygroscopicity Test by a Desiccator Method) The hygroscopicities of the crystals obtained in Examples 1d and 2d were evaluated by a desiccator method. […] Weighing bottles (in opened caps) were used for containers, and MIR-552 (Sanyo) was used for a storage apparatus. [table] The powder X-ray diffraction analysis was carried out under the following conditions. The water content was measured (by the Karl Fischer method) by using the following apparatus and reagents.

[4] = Crystal transition between polymorphs in heated suspension; details: 60° C., 3 hours, listed as polymorph (A)
Experimental: These suspensions were filtered to collect 4-(3-chloro-4-(cyclopropylaminocarbonyl)aminophenoxy)-7-methoxy-6-quinolinecarboxamide (184 to 266 mg).
These suspensions were filtered to collect 4-(3-chloro-4-(cyclopropylaminocarbonyl)aminophenoxy)-7-methoxy-6-quinolinecarboxamide (141 to 256 mg).

[5] = Hygroscopicity test by microbalance method; details: 25° C.
Experimental: (Hygroscopicity Test by Microbalance Method)
The higroscopicities of the crystals obtained in Examples 1d and 2d were evaluated by microbalance method. An apparatus and conditions employed were as follows.
Apparatus: Integrated microbalance system MB 300W (VTI Co.)
Relative humidity step: 5 to 95 by 5
Equilibrium Criteria: 0.0050 wt % (5 minutes)
Maximum equilibrium time: 120 minutes
The results of measuring the higroscopicities of the crystals obtained in Examples 1d and 2d by microbalance method are shown in FIGS. 13 and 14, respectively. As is seen from the results shown in these figures, within the range of 5-95% of relative humidity, the polymorph (A) gave a weight change of 1% and the polymorph (B) gave that of 1.5%.

[6] = condition C: −20° C., brown screw vial, closed, 1 month
[7] = condition D: 25° C., 1000lx, shading with aluminum foil, quartz tube, closed, 1 month
[8] = condition E: 25° C., 1000lx, quartz tube, closed, 1 month
[9] = condition F: 40° C., 75% RH, brown screw vial, open, 1 month
[10] = condition G: 60° C., brown screw vial, closed, 1 month
[11] = condition A: 25° C., 75% relative humidity, stored 1 week
[12] = condition B: 25° C., 93% relative humidity, stored 1 week
[13] = desiccator method, 25° C., 75% or 93% relative humidity, 1 week

With COc1cc2nccc(Oc3ccc(NC(=O)NC4CC4)c(Cl)c3)c2cc1C(N)=O [Example 1d, 4-(3-chloro-4-(cyclopropylaminocarbonyl)aminophenoxy)-7-methoxy-6-quinolinecarboxamide] the appearance [1, 6] was “light brown”, the impurity [1, 6] was 2.66% and the remaining percent ([1]; condition C: −20° C., brown screw vial, closed, 1 month, condition C is the standard) was “(100) %”. The water content [1, 6] was 1.0 wt %, the appearance [1, 7] was “light brown” and the impurity [1, 7] was 2.67%. The remaining percent ([1]; condition D: 25° C., 1000lx, shading with aluminum foil, quartz tube, closed, 1 month, vs condition C standard) was 103.3%, the water content [1, 7] was 0.7 wt % and the appearance [1, 8] was “light brown”. The impurity [1, 8] was 2.68%, the remaining percent ([1]; condition E: 25° C., 1000lx, quartz tube, closed, 1 month, vs condition C standard) was 104.3% and the water content [1, 8] was 0.8 wt %. For the same compound, the appearance [1, 9] was “light brown”, the impurity [1, 9] was 2.65% and the remaining percent ([1]; condition F: 40° C., 75% RH, brown screw vial, open, 1 month, vs condition C standard) was 102.3%. The water content [1, 9] was 1.2 wt %, the appearance [1, 10] was “light brown” and the impurity [1, 10] was 2.65%. For the same compound, the remaining percent ([1]; condition G: 60° C., brown screw vial, closed, 1 month, vs condition C standard) was 104.4%, the water content [1, 10] was 0.5 wt % and the appearance ([1]; prior to storage) was “light brown”. For the same compound, the impurity ([1]; prior to storage) was 2.71%, the water content ([1]; prior to storage) was 1.0 wt % and the “change on storage (solid stability)” value ([1]; stored for 1 month, any storage conditions) was “no change was observed”. For the same compound, the solubility at 3 h ([2]; Britton Robinson buffer, 25 °C, pH 3, aqueous buffer, thermodynamic from solid, pH 3 Britton Robinson buffer, 25-26° C., shaking time 3 hours, read-out: solubility (concentration in filtrate)) was 77 µg/mL (≈ 180 µM), the solubility at 5 h ([2]; Britton Robinson buffer, 25 °C, pH 3, aqueous buffer, thermodynamic from solid, pH 3 Britton Robinson buffer, 25-26° C., shaking time 5 hours, read-out: solubility (concentration in filtrate)) was 71 µg/mL (≈ 166 µM) and the “pH of the filtrate” value ([2]; shaking time 3 hours) was 3.123. For the same compound, the “pH of the filtrate” value ([2]; shaking time 5 hours) was 3.107, the appearance [3, 11] was “light brown” and the water content [3, 11] was 1.0 wt %. For the same compound, the appearance [3, 12] was “light brown”, the water content [3, 12] was 1.2 wt % and the crystal transition [3, 13] was “no perceivable crystal transition”. For the same compound, the hygroscopicity [3, 13] was “no perceivable hygroscopicitiy”, the appearance ([3]; prior to storage) was “light brown” and the water content ([3]; prior to storage) was 1.0 wt %. For the same compound, the “crystal form after suspension” value ([4]; 300 mg in DMSO (1.7 mL) and 33% (v/v) acetone-water (0.17, 0.34, 0.51 or 0.85 mL)) was “crystal transition to the polymorph (B) occurred in every case”, the “dissolution in DMSO” value ([4]; 300 mg in DMSO (1.7 mL), without 33% acetone-water) was “most of the polymorph (A) dissolved” and the hygroscopicity ([5]; microbalance method, 5-95% relative humidity) was “no perceivable hygroscopisity”. It also gave a weight change ([5]; within the range of 5-95% of relative humidity, listed as polymorph (A)) of 1%.
